According to patent US6992070B2 (priority 2000, dated 2006):

Tested on: ex vivo perfused rabbit heart (ventricular myocytes), Adgal adenovirus gene transfer
Assay type: cell-based

Row | SMILES | infection efficiency | pretreatment (exposure) time required for the enhancement of infection [min] | percentage of infected cells | percentage of infected cells in the absence of VEGF
1 | Nc1nc2c(nc(Br)n2[C@@H]2O[C@@H]3COP(=O)(O)O[C@H]3[C@H]2O)c(=O)[nH]1 [8-Br-cGMP] | replicates the increase in infection efficiency | 2 |  | 
2 | CCCc1nn(C)c2c(=O)[nH]c(-c3cc(S(=O)(=O)N4CCN(C)CC4)ccc3OCC)nc12 [Sildenafil, 5-[2-ethoxy-5-(4-methylpiperazin-1-ylsulphonyl)phenyl]-1-methyl-3-n-propyl-1,6-dihydro-7H-pyrazolo[4,3d]pyrimidin-7-one] |  |  | increased the percentage of infected cells | No change
3 | O=[N+]([O-])OCC(CO[N+](=O)[O-])O[N+](=O)[O-] [nitroglycerin] | replicates the increase in infection efficiency | 2 |  | 
4 | NCCc1c[nH]c2ccc(O)cc12 [serotonin] |  | 15 |  | 
5 | CCCOc1ccccc1-c1nc2nn[nH]c2c(=O)[nH]1 [zaprinast] |  |  | increased the percentage of infected cells | No change
